From patent publication US11076594B2, “Pyrazolone compound or salt thereof, preparation method therefor, herbicide composition and use thereof” (QINGDAO KINGAGROOT CHEMICAL COMPOUNDS CO., LTD., priority 2015, dated 2021)
Values belong to the molecule of their own block, whether it stands above or below them.

Key:
Format in all cases: in vivo
Details in all cases: post-emergence spray at 4-5 leaf stage, 250 g/ha active ingredient with 450 kg/ha water, rated after 3 weeks in greenhouse
wheat = experiment: post-emergence stage experiment, crop (Table 1)
How it was run: (§1)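 Greenhouse pot test; foliar spray at 4-5 leaf stage; acetone + Tween 80 + water formulation; 3 wk post-treatment fresh-weight control rate.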

corn = experiment: post-emergence stage experiment, crop (Table 1)
How it was run: as §1

Indian mallow = experiment: weed control effect in post-emergence stage (Table 1); design: key: Level 10: completely dead; Level 9: above 95% growth control rate; Level 8: above 90% growth control rate; Level 7: above 80% growth control rate; Level 6: above 70% growth control rate; Level 5: above 60% growth control rate; Level 4: above 50% growth control rate; Level 3: above 20% growth control rate; Level 2: 5%-20% growth control rate; Level 1: below 5% growth control rate
How it was run: as §1

crab grass = experiment: as above; design: key: Level 10: completely dead; Level 9: above 95% growth control rate; Level 8: above 90% growth control rate; Level 7: above 80% growth control rate; Level 6: above 70% growth control rate; Level 5: above 60% growth control rate; Level 4: above 50% growth control rate; Level 3: above 20% growth control rate; Level 2: 5%-20% growth control rate; Level 1: below 5% growth control rate
How it was run: as §1

foxtail = experiment: as above; design: key: Level 10: completely dead; Level 9: above 95% growth control rate; Level 8: above 90% growth control rate; Level 7: above 80% growth control rate; Level 6: above 70% growth control rate; Level 5: above 60% growth control rate; Level 4: above 50% growth control rate; Level 3: above 20% growth control rate; Level 2: 5%-20% growth control rate; Level 1: below 5% growth control rate
How it was run: as §1

rorippa indica = experiment: as above; design: key: Level 10: completely dead; Level 9: above 95% growth control rate; Level 8: above 90% growth control rate; Level 7: above 80% growth control rate; Level 6: above 70% growth control rate; Level 5: above 60% growth control rate; Level 4: above 50% growth control rate; Level 3: above 20% growth control rate; Level 2: 5%-20% growth control rate; Level 1: below 5% growth control rate
How it was run: as §1

bidens bipinnata = experiment: as above; design: key: Level 10: completely dead; Level 9: above 95% growth control rate; Level 8: above 90% growth control rate; Level 7: above 80% growth control rate; Level 6: above 70% growth control rate; Level 5: above 60% growth control rate; Level 4: above 50% growth control rate; Level 3: above 20% growth control rate; Level 2: 5%-20% growth control rate; Level 1: below 5% growth control rate
How it was run: as §1

echinochloa = experiment: as above; design: key: Level 10: completely dead; Level 9: above 95% growth control rate; Level 8: above 90% growth control rate; Level 7: above 80% growth control rate; Level 6: above 70% growth control rate; Level 5: above 60% growth control rate; Level 4: above 50% growth control rate; Level 3: above 20% growth control rate; Level 2: 5%-20% growth control rate; Level 1: below 5% growth control rate
How it was run: as §1

rice = experiment: post-emergence stage experiment, crop (Table 1)
How it was run: as §1

- effect on crop, Wheat (level) (wheat): 2 (Level 2: 5%-20% growth control rate)
Compound: Cn1cc(C(=O)Oc2c(C(=O)c3ccc(C(F)(F)F)c(N4CCCCC4=O)c3Cl)cnn2C)cn1 [Compound 033]
- effect on crop, Corn (level) (corn): 3 (Level 3: above 20% growth control rate)
- weed control effect, Indian mallow (level) (Indian mallow): 10
- weed control effect, Crab grass (level) (crab grass): 9 (Level 9: above 95% growth control rate)
- weed control effect, Green foxtail (level) (foxtail): 10
- weed control effect, Rorippa indica (level) (rorippa indica): 10
- weed control effect, Bidens bipinnata (level) (bidens bipinnata): 9 (Level 9: above 95% growth control rate)
- weed control effect, Echinochloa (level) (echinochloa): 9 (Level 9: above 95% growth control rate)
- effect on crop, Rice (level) (rice): 8 (Level 8: above 90% growth control rate)

- effect on crop, Corn (level) (corn): 0
Compound: Cc1nn(C)cc1C(=O)Oc1c(C(=O)c2ccc(C(F)(F)F)c(N3CCCCC3=O)c2Cl)c(C)nn1C [Compound 038]
- effect on crop, Wheat (level) (wheat): 1 (Level 1: below 5% growth control rate)
- weed control effect, Indian mallow (level) (Indian mallow): 10
- weed control effect, Crab grass (level) (crab grass): 6 (Level 6: above 70% growth control rate)
- weed control effect, Green foxtail (level) (foxtail): 10
- weed control effect, Rorippa indica (level) (rorippa indica): 10
- weed control effect, Bidens bipinnata (level) (bidens bipinnata): 2 (Level 2: 5%-20% growth control rate)
- weed control effect, Echinochloa (level) (echinochloa): 9 (Level 9: above 95% growth control rate)
- effect on crop, Rice (level) (rice): 6 (Level 6: above 70% growth control rate)

- effect on crop, Wheat (level) (wheat): 0
- effect on crop, Corn (level) (corn): 0
Compound: Cc1nn(C)c(OC(=O)c2cnn(C)c2)c1C(=O)c1ccc(C(F)(F)F)c(N2CCCCCC2=O)c1Cl [Compound 057]
- weed control effect, Indian mallow (level) (Indian mallow): 10
- weed control effect, Crab grass (level) (crab grass): 1 (Level 1: below 5% growth control rate)
- weed control effect, Green foxtail (level) (foxtail): 1 (Level 1: below 5% growth control rate)
- weed control effect, Rorippa indica (level) (rorippa indica): 10
- weed control effect, Bidens bipinnata (level) (bidens bipinnata): 5 (Level 5: above 60% growth control rate)
- weed control effect, Echinochloa (level) (echinochloa): 4 (Level 4: above 50% growth control rate)
- effect on crop, Rice (level) (rice): 3 (Level 3: above 20% growth control rate)

- effect on crop, Rice (level) (rice): 2 (Level 2: 5%-20% growth control rate)
Compound: Cn1ncc(C(=O)c2ccc(C(F)(F)F)c(-n3cccn3)c2Cl)c1O [Compound 064]
- effect on crop, Wheat (level) (wheat): 3 (Level 3: above 20% growth control rate)
- effect on crop, Corn (level) (corn): 7 (Level 7: above 80% growth control rate)
- weed control effect, Indian mallow (level) (Indian mallow): 10
- weed control effect, Crab grass (level) (crab grass): 7 (Level 7: above 80% growth control rate)
- weed control effect, Green foxtail (level) (foxtail): 10
- weed control effect, Rorippa indica (level) (rorippa indica): 9 (Level 9: above 95% growth control rate)
- weed control effect, Bidens bipinnata (level) (bidens bipinnata): 7 (Level 7: above 80% growth control rate)
- weed control effect, Echinochloa (level) (echinochloa): 5 (Level 5: above 60% growth control rate)

The remaining lines, values behind:

Compound: Cc1nn(C)cc1C(=O)Oc1c(C(=O)c2ccc(C(F)(F)F)c(N3CCCCC3=O)c2Cl)cnn1C [Compound 034]
- effect on crop, Wheat (level) (wheat): 1 (Level 1: below 5% growth control rate)
- effect on crop, Corn (level) (corn): 3 (Level 3: above 20% growth control rate)
- weed control effect, Indian mallow (level) (Indian mallow): 9 (Level 9: above 95% growth control rate)
- weed control effect, Crab grass (level) (crab grass): 10
- weed control effect, Green foxtail (level) (foxtail): 5 (Level 5: above 60% growth control rate)
- weed control effect, Rorippa indica (level) (rorippa indica): 10
- weed control effect, Bidens bipinnata (level) (bidens bipinnata): 4 (Level 4: above 50% growth control rate)
- weed control effect, Echinochloa (level) (echinochloa): 10
- effect on crop, Rice (level) (rice): 3 (Level 3: above 20% growth control rate)

Compound: CCOC(=O)Oc1c(C(=O)c2ccc(C(F)(F)F)c(N3CCCCC3=O)c2Cl)c(C)nn1C [Compound 036]
- effect on crop, Wheat (level) (wheat): 3 (Level 3: above 20% growth control rate)
- effect on crop, Corn (level) (corn): 0
- weed control effect, Indian mallow (level) (Indian mallow): 5 (Level 5: above 60% growth control rate)
- weed control effect, Crab grass (level) (crab grass): 5 (Level 5: above 60% growth control rate)
- weed control effect, Green foxtail (level) (foxtail): 10
- weed control effect, Rorippa indica (level) (rorippa indica): 5 (Level 5: above 60% growth control rate)
- weed control effect, Bidens bipinnata (level) (bidens bipinnata): 6 (Level 6: above 70% growth control rate)
- weed control effect, Echinochloa (level) (echinochloa): 7 (Level 7: above 80% growth control rate)
- effect on crop, Rice (level) (rice): 8 (Level 8: above 90% growth control rate)

Compound: Cn1ncc(C(=O)c2ccc(C(F)(F)F)c(N3CCCCCC3=O)c2Cl)c1O [Compound 050]
- effect on crop, Wheat (level) (wheat): 0
- effect on crop, Corn (level) (corn): 3 (Level 3: above 20% growth control rate)
- weed control effect, Indian mallow (level) (Indian mallow): 9 (Level 9: above 95% growth control rate)
- weed control effect, Crab grass (level) (crab grass): 3 (Level 3: above 20% growth control rate)
- weed control effect, Green foxtail (level) (foxtail): 7 (Level 7: above 80% growth control rate)
- weed control effect, Rorippa indica (level) (rorippa indica): 5 (Level 5: above 60% growth control rate)
- weed control effect, Bidens bipinnata (level) (bidens bipinnata): 3 (Level 3: above 20% growth control rate)
- weed control effect, Echinochloa (level) (echinochloa): 2 (Level 2: 5%-20% growth control rate)
- effect on crop, Rice (level) (rice): 0

Compound: CCOC(=O)Oc1c(C(=O)c2ccc(C(F)(F)F)c(N3CCCCCC3=O)c2Cl)c(C)nn1C [Compound 055]
- effect on crop, Wheat (level) (wheat): 0
- effect on crop, Corn (level) (corn): 0
- weed control effect, Indian mallow (level) (Indian mallow): 10
- weed control effect, Crab grass (level) (crab grass): 4 (Level 4: above 50% growth control rate)
- weed control effect, Green foxtail (level) (foxtail): 9 (Level 9: above 95% growth control rate)
- weed control effect, Rorippa indica (level) (rorippa indica): 2 (Level 2: 5%-20% growth control rate)
- weed control effect, Bidens bipinnata (level) (bidens bipinnata): 10
- weed control effect, Echinochloa (level) (echinochloa): 8 (Level 8: above 90% growth control rate)
- effect on crop, Rice (level) (rice): 6 (Level 6: above 70% growth control rate)

Compound: CCOC(=O)Oc1c(C(=O)c2ccc(C(F)(F)F)c(-n3cccn3)c2Cl)c(C)nn1C [Compound 069]
- effect on crop, Wheat (level) (wheat): 0
- effect on crop, Corn (level) (corn): 0
- weed control effect, Indian mallow (level) (Indian mallow): 10
- weed control effect, Crab grass (level) (crab grass): 3 (Level 3: above 20% growth control rate)
- weed control effect, Green foxtail (level) (foxtail): 10
- weed control effect, Rorippa indica (level) (rorippa indica): 0
- weed control effect, Bidens bipinnata (level) (bidens bipinnata): 10
- weed control effect, Echinochloa (level) (echinochloa): 6 (Level 6: above 70% growth control rate)
- effect on crop, Rice (level) (rice): 5 (Level 5: above 60% growth control rate)

Compound: Cc1nn(C)c(OC(=O)c2cnn(C)c2)c1C(=O)c1ccc(C(F)(F)F)c(-n2cccn2)c1Cl [Compound 070]
- effect on crop, Wheat (level) (wheat): 0
- effect on crop, Corn (level) (corn): 3 (Level 3: above 20% growth control rate)
- weed control effect, Indian mallow (level) (Indian mallow): 10
- weed control effect, Crab grass (level) (crab grass): 4 (Level 4: above 50% growth control rate)
- weed control effect, Green foxtail (level) (foxtail): 9 (Level 9: above 95% growth control rate)
- weed control effect, Rorippa indica (level) (rorippa indica): 5 (Level 5: above 60% growth control rate)
- weed control effect, Bidens bipinnata (level) (bidens bipinnata): 5 (Level 5: above 60% growth control rate)
- weed control effect, Echinochloa (level) (echinochloa): 6 (Level 6: above 70% growth control rate)
- effect on crop, Rice (level) (rice): 3 (Level 3: above 20% growth control rate)

Compound: Cn1nc(C2CC2)c(C(=O)c2ccc(C(F)(F)F)c(-n3cccn3)c2Cl)c1O [Compound 073]
- effect on crop, Wheat (level) (wheat): 1 (Level 1: below 5% growth control rate)
- effect on crop, Corn (level) (corn): 3 (Level 3: above 20% growth control rate)
- weed control effect, Indian mallow (level) (Indian mallow): 10
- weed control effect, Crab grass (level) (crab grass): 5 (Level 5: above 60% growth control rate)
- weed control effect, Green foxtail (level) (foxtail): 10
- weed control effect, Rorippa indica (level) (rorippa indica): 7 (Level 7: above 80% growth control rate)
- weed control effect, Bidens bipinnata (level) (bidens bipinnata): 2 (Level 2: 5%-20% growth control rate)
- weed control effect, Echinochloa (level) (echinochloa): 5 (Level 5: above 60% growth control rate)
- effect on crop, Rice (level) (rice): 8 (Level 8: above 90% growth control rate)
